Results as given in patent US5231031A, “Method for assessing risk of diabetes-associated pathologic conditions and efficacy of therapies for such conditions” (priority 1990, dated 1993).

Columns and labels:
[1] = pKa of the phosphorylated metabolites (Table 1); format: physicochemical
Excerpt: While the toxic potential and precise structures of compounds a and b are not known, they have many characteristics in common with S3P and F3P, such as unique chemical shifts, large ^1 H-^31 P spin-spin coupling constants and unusually low pKa' values (see Table 1). In these properties, Compounds a and b differ substantially from other phosphomonoesters and thus appear to belong to the same class of compounds as S3P and F3P. […] There is a good correlation between these elevated concentrations and the presence of clinical symptoms of diabetic complications such as retinopathy, peripheral neuropathy and peripheral vascular disease. This correlation is especially striking when one compares the sum of the concentrations of compounds a and b with the concentration of S3P ([a]+[b]/[S3P]).
Compound (at pH 7.5) (Hz) pKa

erythrocytes = assay: Effect of fructose-3-phosphate on red cell viability, 31P NMR; format: cell-based, human
Experimental: FIGS. 3A-C are ^31 P NMR spectra showing the effect of fructose-3-phosphate on red cell viability.
Spectra were collected in 250-5000 scans using a 60° pulse and a 1.5 sec. repetition rate.
FIGS. 3A-C illustrates the results of an experiment which confirms that this indeed is the case for erythrocytes. […] This phenomenon indicates very strongly that F3P is indeed a toxic agent which, at sufficiently high concentration, leads to an irreversible decline in cell function and ultimately to cell death.

[2] = Glycosylating activity and lability
Excerpt: A difficult problem encountered in the medical treatment of diabetes has been the inability to identify those diabetic patients who are at risk of experiencing some diabetes-associated pathologic condition, so as to effect timely intervention. […] Kato, M., Hayase, F., Shin, D. B., Oimomi, M. and Baba, S. (1989), The Maillard Reaction in Aging, Diabetes and Nutrition, J. W. Baynes and V. M. Monnier, eds, at 69-84 (Liss, New York, 1989).

[3] = compared with F3P; cited from earlier work
[4] = erythrocytes loaded with F3P, then 12 hrs. in fructose-free medium

| SMILES | pKa [1] | toxicity to erythrocytes (erythrocytes; at sufficiently high concentration) | concentration of ATP (erythrocytes; [4]) | hemolysis of the cells (erythrocytes; [4]) | glycosylating potency [2] | lability ([2]; especially in the presence of amines, breaks down to 3-deoxyglucosone) | glycosylating and cross-linking potency [3] |
| --- | --- | --- | --- | --- | --- | --- | --- |
| O=C(CO)[C@@H](OP(=O)(O)O)[C@H](O)[C@H](O)CO [Compound F3P, fructose-3-phosphate] | 5.6 | toxic agent | dramatic decrease | extensive hemolysis | relatively potent glycosylating agent | quite labile | – |
| O=P(O)(O)O[C@@H]([C@H](O)[C@H](O)CO)[C@@H](O)CO [Compound S3P, sorbitol-3-phosphate] | 5.4 | – | – | – | – | – | – |
| O=CC(=O)C[C@H](O)[C@H](O)CO [Compound 3dG, 3-deoxyglucosone] | – | – | – | – | – | – | even more potent Maillard glycosylating and cross-linking agent |
